Results taken from US11420922B2, “Hydroxylated tropolone inhibitors of nucleotidyl transferases in herpesvirus and Hepatitis B and uses therefor” (Saint Louis University, priority 2015, dated 2022).

How the values were obtained:
HSV-2 = test: Anti-HSV-2 replication assay in Vero cells, titers by plaque assay; format: cell-based, herpes simplex virus 2
[1] = test system: TK-deficient mutant of HSV-2 strain 333, ΔTK-; test: Replication of acyclovir-resistant TK-deficient HSV-2 mutant in Vero cells; format: cell-based, herpes simplex virus 2; conditions: 5 μM, 24 hr, FIG. 4
Description: FIGS. 4A & 4B. Sensitivity of thymidine kinase-deficient HSV-2 to αHT compounds. […] Duplicate cultures were collected 24 hours post-infection and infectious virus titers were determined by plaque assay. Titers in compound-treated samples were subtracted from DMSO-treated samples. Values are the averages±one standard error of the mean. α-Hydroxytropolones inhibit an ACV-resistant mutant of HSV-2. […] Log10 suppression was determined relative to the diluent control. Data are the averages of data from duplicate samples±ranges from one of two independent experiments at each concentration.
Vero cells were maintained in Dulbecco's modified Eagle's medium (DMEM) containing 3% newborn calf serum, 3% bovine growth serum, 2 mM L-glutamine and 100 IU/mL penicillin and 0.1 mg/mL streptomycin (P/S). HSV-1 #6 and HSV-2 #1 are de-identified clinical isolates from the Saint Louis University Hospital. Stocks were prepared after a single passage in cell culture and were titered by standard plaque assay (Knipe and Spang, 1982). Wild-type HSV-2 used in FIG. 3 was laboratory strain 333. The TK-deficient mutant of HSV-2 strain 333, ΔTK-, contains a 180-bp KpnI-KpnI deletion in the UL23 open reading frame that abrogates TK activity (McDermott, et al, 1984). ΔTK- was the generous gift of Jim Smiley. Virus stocks were grown and titered on Vero cells (Morrison and Knipe, 1996).
HSV TK-deficient mutants are therefore insensitive to ACV. […] Vero cells were infected with a laboratory strain of HSV-2 and an engineered TK-deficient mutant of the same strain.

HBV = HBV replication assay in HepDES19 cells; format: cell-based; conditions: Hepatitis B virus; HepDES19 cells; read-out: EC50 (HBV assay)
In short: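 HepDES19 cells induced by tetracycline withdrawal, then compound applied 48 h later in duplicate (1% DMSO final) and refreshed daily for two more days. After micrococcal nuclease digestion, capsid-associated HBV DNA purified and plus- and minus-strand DNA quantified by TaqMan PCR.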

HSV-1 = test: Anti-HSV-1 replication assay in Vero cells, titers by plaque assay; format: cell-based, herpes simplex virus 1; conditions: Human alphaherpesvirus 1, Vero, 24 h
In short: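 Vero monolayers infected with clinical HSV-1 or HSV-2 isolates at MOI 0.1 with compound present (50 and 5 μM final), 1 h at 37° C, then compound in DMEM for another 23 h. Yield titered by plaque assay on Vero cells; EC50 by nonlinear fit of serial dilutions starting at 50 μM, DMSO controls.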

[2] = Mouse liver microsome assay; format: in vitro ADME; conditions: 1 μM in mouse liver microsomes
In short: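 Mouse liver microsomes at 0.25 μM P450 final in 0.1 M potassium phosphate with 3.3 mM MgCl and 1 μM compound, prewarmed 5 min at 37 °C. Reaction started with NADPH (1.2 mM final); aliquots at 0, 5, 10, 20 and 30 min quenched in cold acetonitrile with EDTA or EGTA, analysed by LC/MS/MS.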

Question: Which results are given for `Cc1cc(O)c(=O)c(O)cc1C(=O)c1ccc(-c2ccccc2)cc1` [Compound 118]?
Answer: inhibition of wild-type HSV-2, in words (HSV-2; 5 μM, laboratory strain, 24 hr, FIG. 4): efficiently inhibited; EC50 (HSV-2; Human alphaherpesvirus 2, Vero, 24 h, read-out: HSV-2 EC50): 0.08 µM; log reduction at 5 µM (HSV-2; Human alphaherpesvirus 2, Vero, 24 h, read-out: HSV-2 Log suppression 5 μM): 3.22; log reduction at 50 µM (HSV-2; Human alphaherpesvirus 2, Vero, 24 h, read-out: HSV-2 Log suppression 50 μM): 5.56; inhibition of the TK-mutant strain, in words [1]: efficiently inhibited; EC50 (HBV): 6 µM; EC50 (HSV-1; read-out: HSV-1 EC50): 0.085 µM; log reduction at 5 µM (HSV-1; read-out: HSV-1 Log suppression 5 μM): 5.14; log reduction at 50 µM (HSV-1; read-out: HSV-1 Log suppression 50 μM): 6.27; Non-P450 turn-over [2]: Potential; half-life at 1 μM ([2]; read-out: t ½): 34 min; ER ([2]; extraction ratio): 0.63; CLint scaled at 1 μM ([2]; mouse, liver microsomes): 154 mL/min/kg; predicted hepatic clearance at 1 μM ([2]; mouse, liver microsomes, read-out: CL ′hep): 57 mL/min/kg
